Source: ChEMBL document CHEMBL3616451, “Design and synthesis of 11α-substituted bile acid derivatives as potential anti-tuberculosis agents” (Bioorg Med Chem Lett, 2015)
Converted amounts (≈) assume the structure as drawn. The source made the active and inactive calls. No cut-off for these calls is given here.

Tests used:
[1] = test system: Mycobacterium tuberculosis; test: Anti-tubercular activity against rifampicin, isoniazid, ethambutol and pyrazinamide-sensitive Mycobacterium tuberculosis H37Ra ATCC 25177 assessed as growth inhibition at 10 ug/ml by XRMA method relative to control; format: functional; settings: read-out: GI
Escherichia coli = test: Antibacterial activity against Escherichia coli […] assessed as growth inhibition at 30 ug/ml relative to control; format: functional; settings: read-out: GI
Staphylococcus aureus = test: Antibacterial activity against Staphylococcus aureus ATCC 29213 assessed as growth inhibition at 30 ug/ml relative to control; format: functional; settings: for inhibition of growth at 30 µg/mL: read-out: GI
[2] = test system: Mycobacterium tuberculosis; test: Anti-tubercular activity against rifampicin, isoniazid, ethambutol and pyrazinamide-sensitive Mycobacterium tuberculosis H37Ra ATCC 25177 assessed as growth inhibition at 3 ug/ml by XRMA method relative to control; format: functional; settings: for inhibition of growth at 3 µg/mL: read-out: GI
Pseudomonas fluorescens = test: Antibacterial activity against Pseudomonas fluorescens ATCC 13525 assessed as growth inhibition at 30 ug/ml relative to control; format: functional; settings: for inhibition of growth at 30 µg/mL: read-out: GI
[3] = test system: Mycobacterium tuberculosis; test: Anti-tubercular activity against rifampicin, isoniazid, ethambutol and pyrazinamide-sensitive Mycobacterium tuberculosis H37Ra ATCC 25177 assessed as growth inhibition at 30 ug/ml by XRMA method relative to control; format: functional; settings: read-out: GI
Bacillus subtilis = test: Antibacterial activity against Bacillus subtilis ATCC 23857 assessed as growth inhibition at 30 ug/ml relative to control; format: functional; settings: for inhibition of growth at 30 µg/mL: read-out: GI
THP-1 = test: (§1) Cytotoxicity against human THP1 cells after 48 hrs by MTT assay; format: cell-based; settings: thp-1, 48 h
[4] = as §1; format: cell-based, THP-1; settings: THP-1 cells
[5] = Cytotoxicity against human PANC1 cells after 48 hrs by MTT assay; format: cell-based, PANC-1
[6] = test system: Mycobacterium tuberculosis; test: Anti-tubercular activity against rifampicin, isoniazid, ethambutol and pyrazinamide-sensitive dormant phage of Mycobacterium tuberculosis H37Ra ATCC 25177 infected in human THP1 cells by neutral red assay; format: functional, organism-based; settings: H37Ra ATCC 25177, THP-1
[7] = test system: Mycobacterium tuberculosis; test: Anti-tubercular activity against rifampicin, isoniazid, ethambutol and pyrazinamide-sensitive active phage of Mycobacterium tuberculosis H37Ra ATCC 25177 by serial dilution method; format: functional, organism-based
[8] = test system: Mycobacterium tuberculosis; test: Anti-tubercular activity against rifampicin, isoniazid, ethambutol and pyrazinamide-sensitive active phage of Mycobacterium tuberculosis H37Ra ATCC 25177 infected in human THP1 cells by neutral red assay; format: functional, organism-based; settings: H37Ra ATCC 25177, THP-1
A549 = test: (§2) Cytotoxicity against human A549 cells after 48 hrs by MTT assay; format: cell-based; settings: a549, 48 h
[9] = as §2; format: cell-based; settings: A549 cells
[10] = test system: Mycobacterium tuberculosis; test: Anti-tubercular activity against rifampicin, isoniazid, ethambutol and pyrazinamide-sensitive dormant phage of Mycobacterium tuberculosis H37Ra ATCC 25177 by serial dilution method; format: functional, organism-based

Structure (SMILES) | inhibition of growth at 10 µg/mL [1] | inhibition of growth at 30 µg/mL (Escherichia coli) | inhibition of growth at 3 µg/mL [2] | inhibition of growth at 30 µg/mL (Pseudomonas fluorescens) | inhibition of growth at 30 µg/mL [3] | inhibition of growth at 30 µg/mL (Bacillus subtilis) | inhibition of growth at 30 µg/mL (Staphylococcus aureus) | IC50 [6] | IC90 [6] | IC50 [7] | IC90 [7] | IC50 [8] | IC90 [8] | IC50 [10] | IC90 [10] | also measured
COC(=O)CC[C@@H](C)[C@H]1CC[C@H]2[C@H]3[C@H]([C@H](n4cc(-c5ccc(F)cc5)nn4)C(=O)[C@]12C)[C@@]1(C)CC[C@@H](OC(C)=O)C[C@H]1C[C@H]3OC(C)=O | 75% | 43.8% | 71% | 23.2% | 79% | 20% | – | – | – | – | – | – | – | – | – | growth inhibition (GI) (Staphylococcus aureus): inactive
CCOC(=O)N[C@@H]1C(=O)[C@]2(C)[C@@H]([C@H](C)CCC(=O)OC)CC[C@H]2[C@H]2[C@H]1[C@@]1(C)CC[C@@H](OC(C)=O)C[C@H]1C[C@H]2OC(C)=O | 73% | 46.7% | 66% | 54.5% | 86% | – | 17.3% | – | – | – | – | – | – | – | – | growth inhibition (GI) (Bacillus subtilis): inactive
COC(=O)CC[C@@H](C)[C@H]1CC[C@H]2[C@H]3[C@H]([C@H](NC(=O)C(CO)NC(=O)OC(C)(C)C)C(=O)[C@]12C)[C@@]1(C)CC[C@@H](OC(C)=O)C[C@H]1C[C@H]3OC(C)=O (stereo partly specified) | 73% | 43.2% | 68% | 29.9% | 91% | – | 11.9% | 3.44 µg/mL (≈ 4.87 µM) | 26.3 µg/mL (≈ 37.2 µM) | 2.7 µg/mL (≈ 3.82 µM) | 28.9 µg/mL (≈ 40.8 µM) | 3.98 µg/mL (≈ 5.63 µM) | 26.9 µg/mL (≈ 38 µM) | 6.16 µg/mL (≈ 8.71 µM) | 26.3 µg/mL (≈ 37.2 µM) | GI90 (THP-1): > 100 µg/mL; GI50 at 48 h [4]: 76.2 µg/mL (≈ 108 µM); GI50 at 48 h ([5]; PANC-1 cells): > 100 µg/mL; GI90 ([5]; panc-1, 48 h): > 100 µg/mL; GI90 (A549): > 100 µg/mL; GI50 at 48 h [9]: > 100 µg/mL; growth inhibition (GI) (Bacillus subtilis): inactive
COC(=O)CC[C@@H](C)[C@H]1CC[C@H]2[C@H]3[C@H]([C@H](N)C(=O)[C@]12C)[C@@]1(C)CC[C@@H](OC(C)=O)C[C@H]1C[C@H]3OC(C)=O | < 1% | – | – | – | < 1% | – | – | – | – | – | – | – | – | – | – | growth inhibition (GI) [2]: inactive
COC(=O)CC[C@@H](C)[C@H]1CC[C@H]2[C@H]3[C@H]([C@H](NC(C)C)C(=O)[C@]12C)[C@@]1(C)CC[C@@H](OC(C)=O)C[C@H]1C[C@H]3OC(C)=O | 71% | 31.9% | 66% | 37.2% | 84% | 4.79% | 16.4% | – | – | – | – | – | – | – | – | –
NNC(=O)c1ccncc1 [ISONIAZID] | – | – | – | – | – | – | – | 0.0024 µg/mL (≈ 0.0175 µM) | 0.0078 µg/mL (≈ 0.0569 µM) | 0.0019 µg/mL (≈ 0.0139 µM) | 0.074 µg/mL (≈ 0.54 µM) | 0.0024 µg/mL (≈ 0.0175 µM) | 0.075 µg/mL (≈ 0.547 µM) | 0.0023 µg/mL (≈ 0.0168 µM) | 0.075 µg/mL (≈ 0.547 µM) | –
COC(=O)CC[C@@H](C)[C@H]1CC[C@H]2[C@H]3[C@H]([C@H](n4cc(-c5ccccc5)nn4)C(=O)[C@]12C)[C@@]1(C)CC[C@@H](OC(C)=O)C[C@H]1C[C@H]3OC(C)=O | 68% | 17.8% | 67% | – | 74% | 20% | – | – | – | – | – | – | – | – | – | growth inhibition (GI) (Staphylococcus aureus): inactive; growth inhibition (GI) (Pseudomonas fluorescens): inactive
CO[C@H]1/C=C/O[C@@]2(C)Oc3c(C)c(O)c4c(O)c(c(/C=N/N5CCN(C)CC5)c(O)c4c3C2=O)NC(=O)/C(C)=C\C=C\[C@H](C)[C@H](O)[C@@H](C)[C@@H](O)[C@@H](C)[C@H](OC(C)=O)[C@@H]1C [RIFAMPIN] | – | – | – | – | – | – | – | 0.0018 µg/mL (≈ 0.00219 µM) | 0.048 µg/mL (≈ 0.0583 µM) | 0.0018 µg/mL (≈ 0.00219 µM) | 0.048 µg/mL (≈ 0.0583 µM) | 0.0021 µg/mL (≈ 0.00255 µM) | 0.051 µg/mL (≈ 0.062 µM) | 0.0014 µg/mL (≈ 0.0017 µM) | 0.043 µg/mL (≈ 0.0523 µM) | –
COC(=O)CC[C@@H](C)[C@H]1CC[C@H]2[C@H]3[C@H]([C@H](NC(=O)C4CN4)C(=O)[C@]12C)[C@@]1(C)CC[C@@H](OC(C)=O)C[C@H]1C[C@H]3OC(C)=O (stereo partly specified) | 10% | – | – | – | 14% | – | – | – | – | – | – | – | – | – | – | growth inhibition (GI) [2]: inactive
